# Species on record: Rattus norvegicus
# Assay: DrugMatrix - Regimen: Daily Repeat
# Format: toxicity, organism-based, Sprague-Dawley
# Set-up: regimen Daily Repeat, gender Male, age 6-8 weeks
# Conditions: in vivo, po, route oral GAVAGE, vehicle 100 % WATER; for ABSOLUTE BASOPHIL / ABSOLUTE EOSINOPHIL / ABSOLUTE LYMPHOCYTE / ABSOLUTE MONOCYTE / ABSOLUTE SEGMENTED NEUTROPHIL / BASOPHIL / EOSINOPHIL / ERYTHROCYTE COUNT / HEMATOCRIT / HEMOGLOBIN / LEUKOCYTE COUNT / LYMPHOCYTE / MEAN CORPUSCULAR HEMOGLOBIN / MEAN CORPUSCULAR HEMOGLOBIN CONCENTRATION / MONOCYTE / NEUTROPHIL / NUCLEATED RED BLOOD CELLS / PLATELET COUNT: tissue Blood; for ALANINE AMINOTRANSFERASE / ALBUMIN / ALKALINE PHOSPHATASE / ASPARTATE AMINOTRANSFERASE / BLOOD UREA NITROGEN / CARBON DIOXIDE / CHLORIDE / CHOLESTEROL / CREATINE PHOSPHOKINASE / CREATININE / GLUCOSE / LACTATE DEHYDROGENASE / LIPASE / PHOSPHORUS / POTASSIUM / SODIUM / TOTAL BILIRUBIN / TOTAL PROTEIN / URIC ACID: tissue Plasma
# [1] = 0 mg/kg, 72 h, dose level Control, time 3 day
# [2] = 0 mg/kg, 120 h, dose level Control, time 5 day
# [3] = 35 mg/kg, 72 h, dose level Low, time 3 day
smiles,measurement,setting,value
Nc1ccn([C@@H]2CS[C@H](CO)O2)c(=O)n1 [LAMIVUDINE],ABSOLUTE BASOPHIL,[1],0 CELLS/uL
same,ABSOLUTE EOSINOPHIL,[1],0 CELLS/uL
same,ABSOLUTE LYMPHOCYTE,[1],8482.5 CELLS/uL
same,ABSOLUTE MONOCYTE,[1],63.83 CELLS/uL
same,ABSOLUTE SEGMENTED NEUTROPHIL,[1],887 CELLS/uL
same,BASOPHIL,[1],0%
same,EOSINOPHIL,[1],0%
same,ERYTHROCYTE COUNT,[1],5.49 x10E6/uL
same,HEMATOCRIT,[1],34.5%
same,HEMOGLOBIN,[1],13.33 G/DL
same,LEUKOCYTE COUNT,[1],9.43 x10E3/uL
same,LYMPHOCYTE,[1],90.17%
same,MEAN CORPUSCULAR HEMOGLOBIN,[1],24.3 pg
same,MEAN CORPUSCULAR HEMOGLOBIN CONCENTRATION,[1],38.63 G/DL
same,MONOCYTE,[1],0.67%
same,NEUTROPHIL,[1],9.17%
same,NUCLEATED RED BLOOD CELLS,[1],0.67 /100WBC
same,PLATELET COUNT,[1],1022.83 x10E3/uL
same,ALANINE AMINOTRANSFERASE,[1],50.5 u/L
same,ALBUMIN,[1],4.08 G/DL
same,ALKALINE PHOSPHATASE,[1],368.33 u/L
same,ASPARTATE AMINOTRANSFERASE,[1],87.5 u/L
same,BLOOD UREA NITROGEN,[1],12.83 mg/dL
same,CARBON DIOXIDE,[1],32.83 mmol/L
same,CHLORIDE,[1],99.67 MEQ/L
same,CHOLESTEROL,[1],79.67 mg/dL
same,CREATINE PHOSPHOKINASE,[1],585 u/L
same,CREATININE,[1],0.22 mg/dL
same,GLUCOSE,[1],135.67 mg/dL
same,LACTATE DEHYDROGENASE,[1],171 u/L
same,LIPASE,[1],9.5 u/L
same,PHOSPHORUS,[1],11.18 mg/dL
same,POTASSIUM,[1],6.25 MEQ/L
same,SODIUM,[1],144.87 MEQ/L
same,TOTAL BILIRUBIN,[1],0.2 mg/dL
same,TOTAL PROTEIN,[1],6.08 G/DL
same,URIC ACID,[1],0.65 mg/dL
same,ABSOLUTE BASOPHIL,[2],0 CELLS/uL
same,ABSOLUTE EOSINOPHIL,[2],14.5 CELLS/uL
same,ABSOLUTE LYMPHOCYTE,[2],7596.17 CELLS/uL
same,ABSOLUTE MONOCYTE,[2],69.67 CELLS/uL
same,ABSOLUTE SEGMENTED NEUTROPHIL,[2],503 CELLS/uL
same,BASOPHIL,[2],0%
same,EOSINOPHIL,[2],0.17%
same,ERYTHROCYTE COUNT,[2],5.49 x10E6/uL
same,HEMATOCRIT,[2],34.72%
same,HEMOGLOBIN,[2],13.47 G/DL
same,LEUKOCYTE COUNT,[2],8.18 x10E3/uL
same,LYMPHOCYTE,[2],92.17%
same,MEAN CORPUSCULAR HEMOGLOBIN,[2],24.57 pg
same,MEAN CORPUSCULAR HEMOGLOBIN CONCENTRATION,[2],38.82 G/DL
same,MONOCYTE,[2],1%
same,NEUTROPHIL,[2],6.67%
same,NUCLEATED RED BLOOD CELLS,[2],0 /100WBC
same,PLATELET COUNT,[2],1141 x10E3/uL
same,ALANINE AMINOTRANSFERASE,[2],48.33 u/L
same,ALBUMIN,[2],4.07 G/DL
same,ALKALINE PHOSPHATASE,[2],395.67 u/L
same,ASPARTATE AMINOTRANSFERASE,[2],85.67 u/L
same,BLOOD UREA NITROGEN,[2],15.83 mg/dL
same,CARBON DIOXIDE,[2],31.33 mmol/L
same,CHLORIDE,[2],100.83 MEQ/L
same,CREATINE PHOSPHOKINASE,[2],248.33 u/L
same,CREATININE,[2],0.2 mg/dL
same,GLUCOSE,[2],135.67 mg/dL
same,LACTATE DEHYDROGENASE,[2],141.33 u/L
same,LIPASE,[2],9.5 u/L
same,PHOSPHORUS,[2],10.73 mg/dL
same,POTASSIUM,[2],6.07 MEQ/L
same,SODIUM,[2],145.35 MEQ/L
same,TOTAL BILIRUBIN,[2],0.22 mg/dL
same,TOTAL PROTEIN,[2],6.12 G/DL
same,URIC ACID,[2],0.63 mg/dL
same,ABSOLUTE BASOPHIL,[3],0 CELLS/uL
same,ABSOLUTE EOSINOPHIL,[3],40.67 CELLS/uL
same,ABSOLUTE LYMPHOCYTE,[3],11136 CELLS/uL
same,ABSOLUTE MONOCYTE,[3],119.67 CELLS/uL
same,ABSOLUTE SEGMENTED NEUTROPHIL,[3],470.33 CELLS/uL
same,BASOPHIL,[3],0%
same,EOSINOPHIL,[3],0.33%
same,ERYTHROCYTE COUNT,[3],5.47 x10E6/uL
same,HEMATOCRIT,[3],34.33%
same,HEMOGLOBIN,[3],13.4 G/DL
same,LEUKOCYTE COUNT,[3],11.77 x10E3/uL
same,LYMPHOCYTE,[3],94.67%
same,MEAN CORPUSCULAR HEMOGLOBIN,[3],24.5 pg
same,MEAN CORPUSCULAR HEMOGLOBIN CONCENTRATION,[3],39.03 G/DL
same,MONOCYTE,[3],1%
same,NEUTROPHIL,[3],4%
same,NUCLEATED RED BLOOD CELLS,[3],0 /100WBC
same,PLATELET COUNT,[3],1274 x10E3/uL
same,ALANINE AMINOTRANSFERASE,[3],51.67 u/L
same,ALBUMIN,[3],4.27 G/DL
same,ALKALINE PHOSPHATASE,[3],390.33 u/L
same,ASPARTATE AMINOTRANSFERASE,[3],80.67 u/L
same,BLOOD UREA NITROGEN,[3],12.33 mg/dL
same,CARBON DIOXIDE,[3],34.33 mmol/L
same,CHLORIDE,[3],98.33 MEQ/L
same,CHOLESTEROL,[3],78 mg/dL
same,CREATINE PHOSPHOKINASE,[3],237.33 u/L
same,CREATININE,[3],0.2 mg/dL
same,GLUCOSE,[3],124.67 mg/dL
same,LACTATE DEHYDROGENASE,[3],167.33 u/L
same,LIPASE,[3],10 u/L
same,PHOSPHORUS,[3],10.9 mg/dL
same,POTASSIUM,[3],6.42 MEQ/L
same,SODIUM,[3],144.2 MEQ/L
same,TOTAL BILIRUBIN,[3],0.13 mg/dL
same,URIC ACID,[3],0.87 mg/dL

# Source: ChEMBL document CHEMBL3885881, “DrugMatrix”
